Laboratory results as given in the supplement of paper PMC11061612.

Experiments:
Test in all cases: Bliss excess, mean over the matrix (fraction); higher = more synergy
[1] = tested on: 639-V (Bladder Carcinoma)
Procedure, shortened: (§1)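 Bliss excess equals the observed combination effect minus the expected value EA + EB − EA·EB, where EA and EB are the effects of each agent alone. Combination Emax is the second-highest inhibition within the matrix. Inhibition was scaled from CellTiter-Glo 2.0 luminescence, with 0 set by vehicle wells and 1 by blank wells, after 72 hours of two-drug dosing of cells plated in 1536-well plates.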

[2] = tested on: CAPAN-1 (Pancreatic Carcinoma)
Procedure, shortened: as §1

[3] = tested on: EN (Endometrial Carcinoma)
Procedure, shortened: as §1

[4] = tested on: HCC-15 (Squamous Cell Lung Carcinoma)
Procedure, shortened: as §1

[5] = tested on: HDLM-2 (Hodgkin's Lymphoma)
Procedure, shortened: as §1

[6] = tested on: HO-1-u-1 (Oral Cavity Carcinoma)
Procedure, shortened: as §1

[7] = tested on: Hs-633T (Other Solid Carcinomas)
Procedure, shortened: as §1

[8] = tested on: K5 (Thyroid Gland Carcinoma)
Procedure, shortened: as §1

[9] = tested on: LoVo (Colorectal Carcinoma)
Procedure, shortened: as §1

[10] = tested on: MHH-PREB-1 (B-Cell Non-Hodgkin's Lymphoma)
Procedure, shortened: as §1

[11] = tested on: Mewo (Melanoma)
Procedure, shortened: as §1

[12] = tested on: NB14 (Neuroblastoma)
Procedure, shortened: as §1

[13] = tested on: NCI-H2461 (Mesothelioma)
Procedure, shortened: as §1

[14] = tested on: NCI-H2795 (Mesothelioma)
Procedure, shortened: as §1

[15] = tested on: NCI-H69 (Small Cell Lung Carcinoma)
Procedure, shortened: as §1

[16] = tested on: RPMI-6666 (Non-Cancerous)
Procedure, shortened: as §1

[17] = tested on: SH-4 (Melanoma)
Procedure, shortened: as §1

[18] = tested on: SK-OV-3 (Ovarian Carcinoma)
Procedure, shortened: as §1

[19] = tested on: SW626 (Colorectal Carcinoma)
Procedure, shortened: as §1

[20] = tested on: UMC-11 (Other Solid Carcinomas)
Procedure, shortened: as §1

SMILES | Bliss excess [1] | Bliss excess [2] | Bliss excess [3] | Bliss excess [4] | Bliss excess [5] | Bliss excess [6] | Bliss excess [7] | Bliss excess [8] | Bliss excess [9] | Bliss excess [10] | Bliss excess [11] | Bliss excess [12] | Bliss excess [13] | Bliss excess [14] | Bliss excess [15] | Bliss excess [16] | Bliss excess [17] | Bliss excess [18] | Bliss excess [19] | Bliss excess [20]
COc1nnc2ccc(N3CCC(c4ccc(OCCN5CCN(C)C(=O)[C@H]5C)cc4)CC3)nn12 [AZD5153] + Cn1cnc2c(F)c(Nc3ccc(Br)cc3Cl)c(C(=O)NOCCO)cc21 [Selumetinib] (first compound max 1 µM, 7x7, partner max 10 µM) | -0.0459 | -0.0226 | 0.023 | 0.0567 | -0.0407 | 0.0747 | 0.0302 | -0.0937 | 0.065 | -0.0323 | 0.0325 | -0.0325 | -0.0415 | -0.03 | -0.0503 | -0.0462 | 0.0222 | -0.0545 | -0.005 | -0.031
Cc1c2c(nn1C)CSCc1cc(n(C)n1)CSc1cc(c3ccccc3c1)OCCCc1c(C(=O)O)n(C)c3c-2c(Cl)ccc13 [AZD5991] + C1CN(CCC1(C(=O)N[C@@H](CCO)C2=CC=C(C=C2)Cl)N)C3=NC=NC4=C3C=CN4 [Capivasertib] (first compound max 1 µM, 7x7, partner max 3 µM) | -0.0036 | -0.0318 | -0.0547 | 0.0441 | 0.0369 | 0.0242 | 0.0123 | -0.021 | -0.069 | -0.0283 | -0.0536 | 0.0283 | -0.0345 | 0.119 | -0.026 | 0.0216 | -0.0029 | -0.0065 | -0.018 | 0.0253
Cc1c2c(nn1C)CSCc1cc(n(C)n1)CSc1cc(c3ccccc3c1)OCCCc1c(C(=O)O)n(C)c3c-2c(Cl)ccc13 [AZD5991] + C=CCn1c(=O)c2cnc(Nc3ccc(N4CCN(C)CC4)cc3)nc2n1-c1cccc(C(C)(C)O)n1 [AZD1775] (first compound max 1 µM, partner max 1 µM) | 0.0854 | -0.0981 | -0.0038 | 0.001 | 0.0055 | 0.0396 | -0.0399 | -0.0391 | -0.064 | 0.0023 | -0.0347 | -0.0137 | 0.0081 | 0.0734 | -0.116 | 0.0122 | 0.101 | 0.0698 | 0.0446 | -0.0732
Cc1c2c(nn1C)CSCc1cc(n(C)n1)CSc1cc(c3ccccc3c1)OCCCc1c(C(=O)O)n(C)c3c-2c(Cl)ccc13 [AZD5991] + CC1(C)CCC(CN2CCN(c3ccc(C(=O)NS(=O)(=O)c4ccc(NCC5CCOCC5)c([N+](=O)[O-])c4)c(Oc4cnc5[nH]ccc5c4)c3)CC2)=C(c2ccc(Cl)cc2)C1 [Venetoclax] (first compound max 1 µM, 7x7, partner max 1 µM) | 0.0009 | -0.0459 | -0.0236 | -0.0271 | 0.162 | -0.0046 | -0.016 | -0.0325 | -0.0217 | -0.0301 | 0.0377 | 0.255 | -0.0237 | -0.0423 | -0.0383 | 0.233 | 0.0457 | -0.0153 | -0.0064 | 0.0749
Cc1c2c(nn1C)CSCc1cc(n(C)n1)CSc1cc(c3ccccc3c1)OCCCc1c(C(=O)O)n(C)c3c-2c(Cl)ccc13 [AZD5991] + CN(C)CCCOc1ccc(-c2ccc3ncc4c(c3c2)n(C2CCOCC2)c(=O)n4C)cn1 [AZD0156] (first compound max 1 µM, 7x7, partner max 1 µM) | -0.0065 | -0.0229 | -0.024 | 0.0213 | 0.0332 | 0.04 | 0.0239 | -0.0277 | -0.0005 | 0.0081 | -0.019 | 0.0091 | 0.0373 | 0.0192 | -0.0614 | -0.0605 | 0.0088 | 0.0106 | 0.0094 | 0.0551
Cc1c2c(nn1C)CSCc1cc(n(C)n1)CSc1cc(c3ccccc3c1)OCCCc1c(C(=O)O)n(C)c3c-2c(Cl)ccc13 [AZD5991] + C[C@@H]1COCCN1C2=NC(=NC(=C2)C3(CC3)[S@](=N)(=O)C)C4=C5C=CNC5=NC=C4 [AZD6738] (first compound max 1 µM, 7x7, partner max 10 µM) | 0.0431 | -0.0167 | -0.0039 | 0.0549 | -0.0291 | -0.0074 | 0.0184 | 0.0076 | -0.033 | -0.0095 | -0.0329 | -0.0038 | 0.0016 | 0.0835 | -0.0477 | 0.0272 | 0.0323 | 0.0538 | 0.0268 | -0.0265
Cc1c2c(nn1C)CSCc1cc(n(C)n1)CSc1cc(c3ccccc3c1)OCCCc1c(C(=O)O)n(C)c3c-2c(Cl)ccc13 [AZD5991] + C[C@@H](Nc1cc(F)cc(F)c1)c1cc(C(=O)N(C)C)cc2c(=O)cc(N3CCOCC3)oc12 [AZD8186] (first compound max 1 µM, 7x7, partner max 3 µM) | 0.0519 | -0.0595 | -0.109 | -0.0047 | -0.0351 | -0.014 | 0.0127 | -0.0231 | 0.0005 | -0.0069 | -0.0411 | 0.0059 | -0.0062 | 0.0848 | -0.0601 | -0.0005 | 0.0203 | -0.0501 | -0.0268 | -0.039
Cc1c2c(nn1C)CSCc1cc(n(C)n1)CSc1cc(c3ccccc3c1)OCCCc1c(C(=O)O)n(C)c3c-2c(Cl)ccc13 [AZD5991] + Cc1cc2ncnn2cc1Nc1ncc2c(n1)n(C1CCOCC1)c(=O)n2C [AZD7648] (first compound max 1 µM, 7x7, partner max 10 µM) | -0.005 | -0.0057 | -0.056 | -0.0436 | 0.0007 | -0.019 | -0.0097 | -0.0537 | -0.0356 | -0.0029 | -0.0211 | -0.0505 | -0.0516 | -0.0168 | -0.0501 | -0.0204 | -0.0079 | -0.032 | -0.0069 | -0.0716
Cc1c2c(nn1C)CSCc1cc(n(C)n1)CSc1cc(c3ccccc3c1)OCCCc1c(C(=O)O)n(C)c3c-2c(Cl)ccc13 [AZD5991] + Cn1cnc2c(F)c(Nc3ccc(Br)cc3Cl)c(C(=O)NOCCO)cc21 [Selumetinib] (first compound max 1 µM, 7x7, partner max 3 µM) | 0.0247 | -0.0269 | -0.0494 | 0.0217 | -0.0477 | 0.0168 | 0.0542 | -0.0216 | 0.0074 | 0.0113 | -0.0417 | 0.0392 | -0.0131 | 0.0278 | -0.065 | 0.0387 | 0.0465 | -0.0597 | 0.0233 | 0.0198
C[C@@H]1COCCN1c1cc(C2([S@](C)(=N)=O)CC2)nc(-c2ccnc3[nH]ccc23)n1 [AZD6738] + O=C(c1cc(Cc2n[nH]c(=O)c3ccccc23)ccc1F)N1CCN(C(=O)C2CC2)CC1 [Olaparib] (first compound max 10 µM, 7x7, partner max 10 µM) | 0.0684 | -0.0125 | -0.0479 | 0.0025 | -0.0437 | 0.0528 | 0.0221 | -0.0175 | -0.0084 | -0.0405 | -0.0368 | -0.0072 | -0.0214 | 0.053 | -0.0283 | -0.0839 | 0.0189 | -0.0222 | -0.0022 | 0.0266
Cc1cc2ncnn2cc1Nc1ncc2c(n1)n(C1CCOCC1)c(=O)n2C [AZD7648] + C=CCn1c(=O)c2cnc(Nc3ccc(N4CCN(C)CC4)cc3)nc2n1-c1cccc(C(C)(C)O)n1 [AZD1775] (first compound max 10 µM, partner max 1 µM) | 0.049 | 0.0049 | -0.0608 | 0.0339 | -0.0387 | 0.0946 | -0.0333 | 0.0433 | -0.0658 | 0.028 | 0.0455 | 0.0014 | -0.0524 | 0.056 | -0.118 | -0.0687 | 0.0332 | -0.0663 | 0.0341 | -0.0202
Cc1cc2ncnn2cc1Nc1ncc2c(n1)n(C1CCOCC1)c(=O)n2C [AZD7648] + CCN(CCO)CCCOc1ccc2c(Nc3cc(CC(=O)Nc4cccc(F)c4)[nH]n3)ncnc2c1 [AZD2811] (first compound max 10 µM, 7x7, partner max 1 µM) | 0.0219 | -0.0304 | -0.0671 | 0.0043 | -0.0457 | 0.0258 | 0.0211 | 0.0013 | -0.0126 | 0.0617 | 0.0082 | -0.0603 | -0.0105 | 0.009 | 0.0296 | 0.036 | -0.0059 | -0.0193 | -0.0688 | -0.0884
Cc1cc2ncnn2cc1Nc1ncc2c(n1)n(C1CCOCC1)c(=O)n2C [AZD7648] + CN(C)CCCOc1ccc(-c2ccc3ncc4c(c3c2)n(C2CCOCC2)c(=O)n4C)cn1 [AZD0156] (first compound max 10 µM, 7x7, partner max 1 µM) | 0.0192 | -0.0201 | -0.0396 | 0.0013 | -0.0381 | -0.0542 | 0.0271 | -0.0226 | -0.0469 | 0.118 | 0.0033 | 0.0053 | -0.0442 | -0.025 | -0.044 | -0.101 | 0.0077 | -0.0289 | 0.0225 | 0.0196
